According to patent publication US8541588B2, “Sulfonamide derivatives” (Pfizer Limited, priority 2009, dated 2013):

Biological target: T1, Nav1.7 (or SCN9A) channel; HEK cells stably transfected with hSCN9A (Homo sapiens, UniProt Q15858)
T1 construct: expressed in transfected cells
Assay: Nav1.7 block, PatchXpress 7000 automated whole-cell voltage clamp, estimated IC50 (EIC50)
Format: cell-based
Settings: estimated IC50, PatchXpress platform

[1] = hSCN9A HEK cells, Examples 283-814
[2] = hSCN9A HEK cells held at V1/2 of inactivation
[3] = hSCN9A HEK cells, Examples 815-1040

T1 sequence (Q15858 whole entry): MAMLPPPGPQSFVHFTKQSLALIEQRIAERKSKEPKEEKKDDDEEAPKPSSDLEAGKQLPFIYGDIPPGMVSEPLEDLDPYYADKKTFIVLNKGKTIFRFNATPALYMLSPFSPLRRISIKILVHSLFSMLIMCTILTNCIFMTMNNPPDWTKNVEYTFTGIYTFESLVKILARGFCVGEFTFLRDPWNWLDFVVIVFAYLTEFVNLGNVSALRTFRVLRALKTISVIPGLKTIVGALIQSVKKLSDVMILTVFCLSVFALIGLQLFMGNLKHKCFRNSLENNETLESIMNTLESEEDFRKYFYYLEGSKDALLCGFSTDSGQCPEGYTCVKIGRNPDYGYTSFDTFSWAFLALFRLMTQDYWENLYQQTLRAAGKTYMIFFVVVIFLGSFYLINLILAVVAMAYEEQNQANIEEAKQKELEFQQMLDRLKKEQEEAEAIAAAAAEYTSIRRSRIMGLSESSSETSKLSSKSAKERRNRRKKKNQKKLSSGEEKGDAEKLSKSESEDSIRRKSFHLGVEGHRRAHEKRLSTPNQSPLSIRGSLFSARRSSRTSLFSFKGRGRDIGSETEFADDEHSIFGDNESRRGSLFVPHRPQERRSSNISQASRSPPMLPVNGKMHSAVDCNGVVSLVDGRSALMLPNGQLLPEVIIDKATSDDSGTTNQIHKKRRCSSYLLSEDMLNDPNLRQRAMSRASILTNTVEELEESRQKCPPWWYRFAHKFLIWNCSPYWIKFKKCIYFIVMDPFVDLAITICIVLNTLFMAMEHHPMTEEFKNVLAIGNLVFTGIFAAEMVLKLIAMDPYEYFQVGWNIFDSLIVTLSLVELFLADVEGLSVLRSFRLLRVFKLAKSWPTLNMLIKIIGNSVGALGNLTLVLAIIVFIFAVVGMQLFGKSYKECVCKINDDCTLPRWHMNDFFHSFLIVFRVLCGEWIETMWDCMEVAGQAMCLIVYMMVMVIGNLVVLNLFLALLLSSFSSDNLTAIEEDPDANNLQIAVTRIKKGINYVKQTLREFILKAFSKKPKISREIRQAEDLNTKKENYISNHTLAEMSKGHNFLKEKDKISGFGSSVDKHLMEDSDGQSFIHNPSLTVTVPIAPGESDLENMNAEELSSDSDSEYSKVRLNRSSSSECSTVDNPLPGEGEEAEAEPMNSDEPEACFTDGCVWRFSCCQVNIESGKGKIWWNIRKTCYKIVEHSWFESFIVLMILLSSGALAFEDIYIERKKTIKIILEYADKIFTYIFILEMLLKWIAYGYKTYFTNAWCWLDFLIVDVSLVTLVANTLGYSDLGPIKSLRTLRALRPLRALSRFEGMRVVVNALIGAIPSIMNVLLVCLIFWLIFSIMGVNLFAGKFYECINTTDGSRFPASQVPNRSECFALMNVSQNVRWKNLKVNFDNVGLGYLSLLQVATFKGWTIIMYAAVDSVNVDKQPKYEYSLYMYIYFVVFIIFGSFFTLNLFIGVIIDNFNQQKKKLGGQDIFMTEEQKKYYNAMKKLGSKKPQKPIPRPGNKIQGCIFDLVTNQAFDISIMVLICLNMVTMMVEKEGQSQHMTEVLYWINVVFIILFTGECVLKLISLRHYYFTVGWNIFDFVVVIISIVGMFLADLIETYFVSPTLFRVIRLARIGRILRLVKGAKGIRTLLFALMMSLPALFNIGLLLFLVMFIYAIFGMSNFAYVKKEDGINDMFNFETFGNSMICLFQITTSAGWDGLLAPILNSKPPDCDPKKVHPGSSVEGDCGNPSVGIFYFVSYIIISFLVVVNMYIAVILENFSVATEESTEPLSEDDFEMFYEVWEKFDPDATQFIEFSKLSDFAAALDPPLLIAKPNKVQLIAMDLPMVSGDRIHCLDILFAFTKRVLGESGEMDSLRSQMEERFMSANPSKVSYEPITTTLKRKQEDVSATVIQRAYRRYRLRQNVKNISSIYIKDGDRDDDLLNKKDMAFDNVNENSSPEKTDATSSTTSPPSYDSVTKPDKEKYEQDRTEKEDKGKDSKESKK

Row | IC50 [1] [nM] | SMILES | further results
1 | 350 | Cn1nccc1-c1cc(Cl)ccc1Oc1ccc(S(=O)(=O)Nc2ccncn2)cc1F [Example 670, 4-[4-Chloro-2-(1-methyl-1H-pyrazol-5-yl)phenoxy]-3-fluoro-N-pyrimidin-4-ylbenzenesulfonamide] | –
2 | 4.8 | Nc1n[nH]cc1-c1cc(Cl)ccc1Oc1cc(F)c(S(=O)(=O)Nc2nncs2)cc1Cl [Example 803, 4-[2-(5-amino-1H-pyrazol-4-yl)-4-chlorophenoxy]-5-chloro-2-fluoro-N-1,3,4-thiadiazol-2-ylbenzenesulfonamide] | –
3 | 0.9 | O=S(=O)(Nc1ncns1)c1cc(F)c(Oc2cc(F)c(Cl)cc2-c2cn[nH]c2)cc1F [Example 757, 4-[4-chloro-5-fluoro-2-(1H-pyrazol-4-yl)phenoxy]-2,5-difluoro-N-1,2,4-thiadiazol-5-ylbenzenesulfonamide] | –
4 | 1200 | N#Cc1cc(S(=O)(=O)Nc2cscn2)ccc1Oc1ccc(Cl)cc1-c1ccnn1C(F)(F)F [Example 399, 4-{4-chloro-2-[1-(trifluoromethyl)-1H-pyrazol-5-yl]phenoxy}-3-cyano-N-1,3-thiazol-4-ylbenzenesulfonamide] | –
5 | 79 | Cn1nccc1-c1cc(F)ccc1Oc1ccc(S(=O)(=O)Nc2ncc(Cl)s2)cc1C#N [Example 596, N-(5-Chloro-1,3-thiazol-2-yl)-3-cyano-4-[4-fluoro-2-(1-methyl-1H-pyrazol-5-yl)phenoxy]benzenesulfonamide] | –
6 | 690 | O=S(=O)(Nc1cscn1)c1ccc(Oc2ccc(Cl)cc2-c2cn[nH]c2)c(Cl)c1 [Example 673, 3-chloro-4-[4-chloro-2-(1H-pyrazol-4-yl)phenoxy]-N-1,3-thiazol-4-ylbenzenesulfonamide] | –
7 | 540 | Nc1ccc(-c2cc(Cl)ccc2Oc2cc(F)c(S(=O)(=O)Nc3ncns3)cc2F)nc1 [Example 411, 4-[2-(5-aminopyridin-2-yl)-4-chlorophenoxy]-2,5-difluoro-N-1,2,4-thiadiazol-5-ylbenzenesulfonamide] | –
8 | 4.9 | CC(=O)c1cccc(-c2cc(Cl)ccc2Oc2ccc(S(=O)(=O)Nc3ncns3)cc2C#N)c1 [Example 504, 4-[(3′-acetyl-5-chlorobiphenyl-2-yl)oxy]-3-cyano-N-1,2,4-thiadiazol-5-ylbenzenesulfonamide] | –
9 | 2900 | Cn1nc(C(F)(F)F)cc1-c1ccc(Oc2ccc(S(=O)(=O)Nc3nccs3)cc2C#N)cn1 [Example 647, 3-cyano-4-({6-[1-methyl-3-(trifluoromethyl)-1H-pyrazol-5-yl]pyridin-3-yl}oxy)-N-1,3-thiazol-2-ylbenzenesulfonamide] | –
10 | 23 | Cn1nccc1-c1cc(C2CC2)ccc1Oc1ccc(S(=O)(=O)Nc2nccs2)cc1C#N [Example 545, 3-cyano-4-[4-cyclopropyl-2-(1-methyl-1H-pyrazol-5-yl)phenoxy]-N-1,3-thiazol-2-ylbenzenesulfonamide] | –
11 | 2300 | N#Cc1cc(S(=O)(=O)Nc2cscn2)ccc1Oc1ccc(Cl)c(Cn2ccnc2)c1 [Example 418, 4-[4-chloro-3-(1H-imidazol-1-ylmethyl)phenoxy]-3-cyano-N-1,3-thiazol-4-ylbenzenesulfonamide] | –

Continued, molecule first:

Row | SMILES | IC50 [1] [nM] | further results
12 | N#Cc1cc(S(=O)(=O)Nc2ncc(Cl)s2)ccc1Oc1ccc(Cl)cc1-c1ccnn1C(F)F [Example 595, 4-{4-Chloro-2-[1-(difluoromethyl)-1H-pyrazol-5-yl]phenoxy}-N-(5-chloro-1,3-thiazol-2-yl)-3-cyanobenzenesulfonamide] | 80 | –
13 | N#Cc1cc(S(=O)(=O)Nc2nccs2)ccc1Oc1ccccc1-c1nncn1-c1ccccc1 [Example 181, 3-cyano-4-(2-(4-phenyl-4H-1,2,4-triazol-3-yl)phenoxy)-N-(thiazol-2-yl)benzenesulfonamide] | – | IC50 [2]: >10000 nM
14 | N#Cc1cc(S(=O)(=O)Nc2ncns2)ccc1Oc1ccc(Cl)cc1-c1ccsn1 [Example 905, 4-(4-chloro-2-isothiazol-3-ylphenoxy)-3-cyano-N-1,2,4-thiadiazol-5-ylbenzenesulfonamide] | – | IC50 [3]: 190 nM
15 | Nc1cc(-c2cc(C(F)(F)F)ccc2Oc2cc(F)c(S(=O)(=O)Nc3ncns3)cc2Cl)ccn1 [Example 557, 4-[2-(2-aminopyridin-4-yl)-4-(trifluoromethyl)phenoxy]-5-chloro-2-fluoro-N-1,2,4-thiadiazol-5-ylbenzenesulfonamide] | 0.8 | –
16 | N#Cc1cc(S(=O)(=O)Nc2nccs2)ccc1Oc1ccccc1-c1ccno1 [Example 174, 3-cyano-4-(2-(isoxazol-5-yl)phenoxy)-N-(thiazol-2-yl)benzenesulfonamide] | – | IC50 [2]: >10000 nM
17 | O=S(=O)(Nc1nccs1)c1ccc(Oc2ccc(CN3CCC3)c(F)c2)c(F)c1 [Example 125, 4-[4-(azetidin-1-ylmethyl)-3-fluorophenoxy]-3-fluoro-N-1,3-thiazol-2-ylbenzenesulfonamide] | – | IC50 [2]: 23000 nM
18 | Cn1nccc1-c1cc(F)ccc1Oc1cc(F)c(S(=O)(=O)Nc2ncc(Cl)s2)cc1F [Example 613, N-(5-chloro-1,3-thiazol-2-yl)-2,5-difluoro-4-[4-fluoro-2-(1-methyl-1H-pyrazol-5-yl)phenoxy]benzenesulfonamide] | 110 | –
19 | N#Cc1cc(S(=O)(=O)Nc2nccs2)ccc1Oc1ccc(-c2cn(CC(F)(F)F)nc2N)cc1 [Example 482, 4-{4-[3-amino-1-(2,2,2-trifluoroethyl)-1H-pyrazol-4-yl]phenoxy}-3-cyano-N-1,3-thiazol-2-ylbenzenesulfonamide] | >1000 | –
20 | Cn1nc(C(F)(F)F)cc1-c1ccc(Oc2ccc(S(=O)(=O)Nc3nccs3)cc2C#N)c(F)c1 [Example 330, 3-cyano-4-{2-fluoro-4-[1-methyl-3-(trifluoromethyl)-1H-pyrazol-5-yl]phenoxy}-N-1,3-thiazol-2-ylbenzenesulfonamide] | 250 | –
21 | O=S(=O)(Nc1cccnn1)c1ccc(Oc2ccc(Cl)cc2-c2ccnnc2)c(Cl)c1 [Example 869, 3-chloro-4-(4-chloro-2-pyridazin-4-ylphenoxy)-N-pyridazin-3-ylbenzenesulfonamide] | – | IC50 [3]: 540 nM
22 | O=S(=O)(Nc1ncns1)c1ccc(Oc2cc(F)c(Cl)cc2-c2ccnnc2)c(F)c1 [Example 930, 4-(4-chloro-5-fluoro-2-pyridazin-4-ylphenoxy)-3-fluoro-N-1,2,4-thiadiazol-5-ylbenzenesulfonamide] | – | IC50 [3]: 230 nM
23 | CCOC(=O)c1cnn(-c2ccc(Oc3ccc(S(=O)(=O)Nc4nccs4)cc3C#N)cc2)c1 [Example 996, ethyl 1-(4-{2-cyano-4-[(1,3-thiazol-2-ylamino)sulfonyl]phenoxy}phenyl)-1H-pyrazole-4-carboxylate] | – | IC50 [3]: 760 nM
24 | Cc1cc(-c2ccc(Oc3ccc(S(=O)(=O)Nc4nccs4)cc3C#N)cc2)n(CCO)n1 [Example 374, 3-cyano-4-{4-[1-(2-hydroxyethyl)-3-methyl-1H-pyrazol-5-yl]phenoxy}-N-1,3-thiazol-2-ylbenzenesulfonamide] | 1900 | –
25 | CN1CC(n2nccc2-c2cc(Cl)ccc2Oc2ccc(S(=O)(=O)Nc3cscn3)cc2C#N)C1 [Example 729, 4-{4-chloro-2-[1-(1-methylazetidin-3-yl)-1H-pyrazol-5-yl]phenoxy}-3-cyano-N-1,3-thiazol-4-ylbenzenesulfonamide] | 22 | –
26 | O=C(O)Cn1nccc1-c1cc(F)ccc1Oc1ccc(S(=O)(=O)Nc2nccs2)cc1F [Example 238, 2-(5-(5-fluoro-2-(2-fluoro-4-(N-thiazol-2-ylsulfamoyl)phenoxy)phenyl)-1H-pyrazol-1-yl)acetic acid] | – | IC50 [2]: 2210 nM
27 | CC(C)(C)n1ccc(-c2c(F)cccc2Oc2ccc(S(=O)(=O)Nc3ncns3)cc2C#N)n1 [Example 84, 4-[2-(1-tert-Butyl-1H-pyrazol-3-yl)-3-fluoro-phenoxy]-3-cyano-N-[1,2,4]thiadiazol-5-yl-benzene-sulfonamide] | – | IC50 [2]: >10000 nM
28 | N#Cc1cc(S(=O)(=O)Nc2nccs2)ccc1Oc1cccc(-c2cccc(C(F)(F)F)n2)c1 [Example 448, 3-cyano-N-1,3-thiazol-2-yl-4-{3-[6-(trifluoromethyl)pyridin-2-yl]phenoxy}benzenesulfonamide] | 2000 | –
29 | O=S(=O)(Nc1ncns1)c1cc(F)c(Oc2ccccc2-c2ccccc2)cc1Cl [Example 267, 4-(biphenyl-2-yloxy)-2-chloro-5-fluoro-N-1,2,4-thiadiazol-5-ylbenzenesulfonamide] | – | IC50 [2]: 190 nM
30 | Cc1ccc(Oc2ccc(S(=O)(=O)Nc3nccs3)cc2F)c(-c2c(C)cnn2C(C)(C)C)c1 [Example 223, 4-(2-(1-tert-butyl-4-methyl-1H-pyrazol-5-yl)-4-methylphenoxy)-3-fluoro-N-(thiazol-2-yl)benzenesulfonamide] | – | IC50 [2]: 1510 nM
31 | CN1CC(n2nccc2-c2cc(Cl)ccc2Oc2ncc(S(=O)(=O)Nc3ncns3)cc2Cl)C1 [Example 968, 5-chloro-6-{4-chloro-2-[1-(1-methylazetidin-3-yl)-1H-pyrazol-5-yl]phenoxy}-N-1,2,4-thiadiazol-5-ylpyridine-3-sulfonamide] | – | IC50 [3]: 2000 nM
32 | N#Cc1cc(S(=O)(=O)Nc2ncns2)ccc1Oc1ccc(F)cc1-c1cc(N)n[nH]1 [Example 826, 4-[2-(3-amino-1H-pyrazol-5-yl)-4-fluorophenoxy]-3-cyano-N-1,2,4-thiadiazol-5-ylbenzenesulfonamide] | – | IC50 [3]: 300 nM
33 | N#Cc1cc(S(=O)(=O)Nc2ccc(F)cn2)ccc1Oc1ccccc1C1CCCCO1 (centres unmarked) [Example 1005, 3-cyano-N-(5-fluoropyridin-2-yl)-4-[2-(tetrahydro-2H-pyran-2-yl)phenoxy]benzenesulfonamide] | – | IC50 [3]: >3000 nM
34 | N#Cc1cc(S(=O)(=O)Nc2cscn2)ccc1Oc1ccc(OC(F)(F)F)cc1-c1ccnn1C1CNC1 [Example 962, 4-[2-(1-azetidin-3-yl-1H-pyrazol-5-yl)-4-(trifluoromethoxy)phenoxy]-3-cyano-N-1,3-thiazol-4-ylbenzenesulfonamide] | – | IC50 [3]: 9.9 nM
35 | N#Cc1cc(S(=O)(=O)Nc2ncns2)ccc1Oc1ccc(Cl)cc1-c1ccnc(OC2CCC2)c1 [Example 1025, 4-{4-Chloro-2-[2-(cyclobutyloxy)pyridin-4-yl]phenoxy}-3-cyano-N-1,2,4-thiadiazol-5-ylbenzenesulfonamide] | – | IC50 [3]: 4.1 nM
